One block for each compound: values may come before it.
What was measured:
[1] = as described in U.S. Pat. No. 8,476,320; cited from earlier work
[2] = Solid state stability on storage; format: physicochemical
[3] = Hygroscopicity (water absorption on exposure to relative humidity); format: physicochemical
From the text: As used herein the term non-hygroscopic in relation to crystalline Rigosertib Sodium refers to less than 1.0% (w/w) absorption of water, by the crystalline Rigosertib Sodium as determined, for example, by TGA when exposed to 60% RH for 7 days at RT, or preferably 80% RH for 7 days at RT.

Compound: COc1cc(OC)c(/C=C/S(=O)(=O)Cc2ccc(OC)c(NCC(=O)O)c2)c(OC)c1 [Amorphous Rigosertib Sodium, Rigosertib Sodium]
hygroscopicity (water absorption) [1]: readily absorbs water after complete drying

stability of the solid state form [2]: stable
hygroscopicity ([3]; non-hygroscopic defined as less than 1.0% (w/w) absorption of water): non-hygroscopic
hygroscopicity at relative humidity ([3]; up to about 80% relative humidity, about 7 days, 25° C.): substantially non-hygroscopic
Compound: COc1cc(OC)c(/C=C/S(=O)(=O)Cc2ccc(OC)c(NCC(=O)O)c2)c(OC)c1 [Rigosertib Sodium Form A, Rigosertib Sodium]

time for which the form is stable ([2]; at RT): at least 4 M
Compound: COc1cc(OC)c(/C=C/S(=O)(=O)Cc2ccc(OC)c(NCC(=O)O)c2)c(OC)c1 [Rigosertib Sodium Form E, Rigosertib Sodium]
